Assay [1] addresses T1, bromodomain factor 5 (LdBDF5), second bromodomain BD5.2 (Leishmania donovani, UniProt A0ACM8QMJ0).
T1 construct: gene CGC21_36735; BD5.2 (second bromodomain of the N-terminal tandem repeat)
T1 sequence (A0ACM8QMJ0 161-300): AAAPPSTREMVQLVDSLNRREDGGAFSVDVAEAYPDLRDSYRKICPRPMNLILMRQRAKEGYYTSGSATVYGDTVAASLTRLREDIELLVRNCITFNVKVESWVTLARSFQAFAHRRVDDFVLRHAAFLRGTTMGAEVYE
Description: FP competition (also TSA shift; waterLOGSY and CPMG NMR positive, STD inconclusive). Type of assay: binding.

Assay [2] addresses T2, bromodomain factor 5 (LdBDF5), first bromodomain BD5.1 (Leishmania donovani, UniProt A0ACM8QMJ0).
T2 construct: gene CGC21_36735; BD5.1 (first bromodomain of the N-terminal tandem repeat)
Description: ITC (also MST Kd […], FP competition IC50 […], TSA, waterLOGSY/STD/CPMG NMR). It counts as binding.

Results on two compounds are retold here after article PMC10644352, “Bromodomain Factor 5 as a Target for Antileishmanial Drug Discovery” (ACS Infectious Diseases, 2023).

By IC50 is commonly meant the concentration that inhibits the measured activity by half. On to `CCn1cc(-c2cccc(C(F)(F)F)c2)c2sc(C(=N)NC3CCS(=O)(=O)CC3)cc2c1=O` [I-BRD9], for which the IC50 in assay [1] was 24.7 ± 6.2 µM. By Kd is commonly meant the free concentration of one partner at which half of the binding sites on the other are occupied at equilibrium, for simple one-to-one binding. High values mean a looser complex, low ones a tighter complex. For `COc1ccc(CCc2nc3cc(-c4c(C)noc4C)ccc3n2C[C@H](C)N2CCOCC2)cc1Cl` [SGC–CBP30], binding in assay [2] was characterised by a dissociation constant (Kd) of 0.281 ± 0.0123 µM.
